Columns and labels:
Kir2.1 = target: T1, Kir2.1 (Homo sapiens, UniProt P63252); assay: whole-cell patch-clamp of Kir2.1 currents in 293T cells; format: cell-based; conditions: n = 5, read-out: IC50 Kir 2.1
T1 construct: expressed in transfected cells
T1 sequence (P63252 1-427): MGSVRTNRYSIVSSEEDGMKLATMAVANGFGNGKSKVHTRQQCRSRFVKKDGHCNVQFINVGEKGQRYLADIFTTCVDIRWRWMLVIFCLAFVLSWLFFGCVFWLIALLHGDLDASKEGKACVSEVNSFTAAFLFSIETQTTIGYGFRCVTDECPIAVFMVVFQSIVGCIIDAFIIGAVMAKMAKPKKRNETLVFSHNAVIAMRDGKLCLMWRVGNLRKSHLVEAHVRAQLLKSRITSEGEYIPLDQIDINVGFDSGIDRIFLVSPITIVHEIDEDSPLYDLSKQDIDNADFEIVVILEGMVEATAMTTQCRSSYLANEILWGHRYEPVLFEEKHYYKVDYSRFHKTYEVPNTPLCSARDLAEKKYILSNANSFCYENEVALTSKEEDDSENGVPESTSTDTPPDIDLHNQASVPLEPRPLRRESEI
Description: For recordings of K^+ channel currents, we prepared stable cell lines for TREK-1, TWIK-related acid-sensitive K^+ channel (TASK-1), strongly inwardly rectifying K^+ channel (Kir2.1), and human ether-a-go-go-related gene (HERG-1) channels and transiently expressed other channels in 293T cells using a calcium-phosphate transfection method. For the establishment of the stable lines, we used lentiviral vectors, and the preparation methods for the lentiviral vectors were described in our previous report. TR-1 cells, which stably expressed TREK-1 channel and were grown on a small cover glass (3 × 18 mm), were placed in a recording chamber with an internal volume of 200 μl. Whole-cell currents were recorded in Tyrode solution using an Axopatch 200B amplifier (Axon Instruments, Foster City, CA) at 25°C. Tyrode solution contained (in mM): NaCl 140, KCl 5.4, NaH2PO4 0.33, CaCl2 2, MgCl2 1, HEPES 5, and glucose 5.5 (pH 7.4 adjusted with NaOH). […] Perfusion (100 μl/min) was continued to maintain the water level throughout recordings. pH and osmotic pressure of solutions were measured with a pH meter (Horiba, Kyoto, Japan) and a freezing point osmometer (Knauer, Berlin, Germany), respectively. […]

[1] = tested on: mice anxiety-like behavior; assay: elevated plus maze; format: in vivo
Description: (§1) Male ICR mice (n = 317 in total) aged 5 weeks and weighing 32 ± 2 g were purchased from Shimizu Laboratory Supplies (Kyoto, Japan). For the social defeat stress test, we used 28 C57BL/6J mice (5 weeks old, Shimizu Laboratory Supplies) and 30 ICR mice (7–8 weeks old, Charles River Labs Japan, Yokohama, Kanagawa, Japan). Mice were maintained for at least 1 week prior to experiments. Animals were kept in groups in plastic cages. They had free access to food and water, and were kept in a 12-h light/dark cycle (08:00–20:00). Experiments were carried out between 10:00 and 18:00 in a quiet and air-conditioned experimental room, in which mice were habituated for at least 30 min before each experiment. Animal experiments were performed in accordance with the guidelines of the Physiological Society of Japan and were approved by the Committees on Animal Experiments at Kansai Medical University and the Kurashiki University of Science and the Arts. Ostruthin was initially dissolved in DMSO at higher concentration (100 mM) and then diluted in phosphate-buffered saline (PBS). The diluted solution was mixed vigorously for more than 10 min before the experiments, and an equal volume of DMSO was added to PBS as a control. PBS and ostruthin were administered intraperitoneally 30 min before mice behavioral tests (0.01 ml/g body weight). Each animal was used only once, except for the wheel running test, which was carried out immediately after elevated plus maze.
The elevated plus maze apparatus consisted of four arms set in a cross pattern from a neutral central square (6 × 6 cm). Two opposite arms were delimited by vertical walls (closed arms, 30 × 15 × 6 cm), whereas the other two arms had unprotected edges (open arms, 30 × 6 cm). The maze was elevated 40 cm above the floor. At the beginning of each 5 min test session, a mouse was placed in the central neutral area, facing one of the open arms. The total number of the entries to open arms and time spent in the open arms were measured. After removal of the animal, the apparatus was cleaned and wiped.

[2] = tested on: depression-like behavior of mice; assay: tail suspension test; format: in vivo
Description: as §1
The tail suspension test was performed in accordance with a method reported previously. The mouse was hung on a hook using adhesive tape placed 2 cm from the extremity of its tail 50 cm above the table. The amount of time spent immobile was recorded for 5 min.

Compound: CC(C)=CCC/C(C)=C/Cc1cc2ccc(=O)oc2cc1O [ostruthin]
- IC50 (Kir2.1): 198 µM
- number of entries to the open arm ([1]; 20 mg/kg i.p., vs 5 mg/kg): decreased
- time spent on the open arm ([1]; 20 mg/kg i.p., vs 5 mg/kg): decreased
- number of entries to the open arm ([1]; 2 and 5 mg/kg i.p. 30 min before test, vs 0 mg/kg): increased
- number of entries to the open arm ([1]; amlodipine experiment: single compound vs PBS, ostruthin 5 mg/kg or amlodipine 10 mg/kg, n = 6): increased
- number of entries to the open arm ([1]; ostruthin 5 mg/kg co-administered with amlodipine 10 mg/kg, vs amlodipine, n = 6): did not increase
- time spent in the open arm ([1]; ostruthin 5 mg/kg in the absence of amlodipine, vs PBS, n = 6): increased
- increase of time spent in the open arm ([1]; ostruthin 5 mg/kg in the presence of amlodipine 10 mg/kg, n = 6): did not
- time spent immobile ([2]; amlodipine experiment: single compound vs PBS, ostruthin 5 mg/kg or amlodipine 10 mg/kg, n = 9 and 13): significantly decreased
- time spent immobile ([2]; i.p. 30 min before test, 5 min, n = 14, vs PBS): decreased
- time spent immobile ([2]; ostruthin 5 mg/kg in the presence of amlodipine 10 mg/kg (co-administration)): no effect
- time spent immobile ([2]; ostruthin given 30 min after pre-administration of amlodipine, vs secondary PBS, n = 8): ineffective

Source: paper PMC6093650, “Antidepressive and anxiolytic effects of ostruthin, a TREK-1 channel activator” (PLoS ONE, 2018)
